The values below come from paper PMC5017735, “A Novel Peptide Derived from the Fusion Protein Heptad Repeat Inhibits Replication of Subacute Sclerosing Panencephalitis Virus In Vitro and In Vivo” (PLoS ONE, 2016).

The structures appear in SMILES notation. Peptide text beside a SMILES is read from it.

The nature of data set [1]: In vivo toxicity, mice administered peptides alone. On the set-up: species or system BALB/cAJcl-nu/nu mice. The following applies: peptide 100 μM intracranial, no virus infection. On the procedure: (§1) Based on a previous report, but with slight modifications, 3-week-old female BALB/cAJcl-nu/nu mice (CLEA Japan Inc., Tokyo, Japan) were used in the animal experiments. Mice were divided in four groups (n = 6 for each cage) and housed with free access to both water and food and monitored daily. The mice were SSPE virus-infected or mock-infected (MEM alone) intracranially. An SSPE virus-infected cell suspension containing 250 PFU/ 30 μl (100% lethal dose) was inoculated into the subarachnoid space of nude mice using a 27-gauge double needle at a depth of 2 mm. Each compound was prepared at a concentration of 100 μM and was injected intracranially at 0 (mixed with viruses), 6, and 24 h after the initial virus inoculation. All injections were performed under inhalational anesthesia with isoflurane. Each mouse was checked for neurological symptoms and weighed daily. The ethical endpoint was defined as <75% of their maximum weight because most mice would die within 24 h. On attaining this endpoint, the mice were sacrificed by cervical dislocation under inhalational anesthesia with isoflurane. In this experiment, five mice died of natural causes before the ethical endpoint; however, all mice had neurological symptoms and 9.5%, 13.2%,14.5%, 15.8%, 16.4% weight loss (one each) relative to their maximum weight. This study was approved by the control of the Animal Research Committee in accordance with the Guidelines on Animal Experiments in Fukushima Medical University and the Rules for the Protection and Care of Animals (approval number: 23038).

Data set [2] has as its system SSPE Yamagata-1 strain. The data set is described as follows: Animal survival experiment, SSPE virus-infected nude mouse model. The class given is in vivo, BALB/cAJcl-nu/nu mice. The following applies: SSPE virus 250 PFU intracranial; peptide 100 μM intracranial at 0, 6 and 24 h; n = 6; control group 0%. As for the experimental part:
as §1, with “This study was approved by the control of the Animal Research Committee in accordance with the Guidelines on Animal Experiments in Fukushima Medical University and the Rules for the Protection and Care of Animals (approval number: 23038).” left out

Data set [3] concerns SSPE Yamagata-1 strain. The data set is described as follows: Viral plaque reduction assay, SSPE virus in Vero/SLAM cells. The data set is classed as cell-based, SSPE virus (variant measles virus). On the procedure:
(§2) African green monkey kidney (Vero) cells and Vero cells expressing human SLAM (Vero/SLAM cells) were used in all experiments. The growth medium for Vero cells comprised minimal essential medium (MEM) supplemented with 10% heat-inactivated newborn bovine serum, penicillin G (100 IU/ml), streptomycin (100 μg/ml), and L-glutamine (300 μg/ml). The same growth medium, which was further supplemented with G418 (400 μg/ml), was used for Vero/SLAM cells. Cells were seeded into the wells (22 mm) of 12-well tissue culture plates at 1 × 10^5 cells/well and incubated at 37°C in a 10% CO2 incubator for 3 days, at which time they had just reached confluence. The virus strains used were human MV Edmonston strain and SSPE Yamagata-1 [34], which was originally isolated from the brain of an SSPE patient. The Edmonston strain of MV was used to inoculate Vero/SLAM cells and harvested after freeze–thawing infected cells. The SSPE Yamagata-1 strain was cultured in Vero/SLAM cells, harvested by trypsinization, prepared as an infected cell suspension in the Vero/SLAM cell medium supplemented with 10% dimethyl sulfoxide, and stored at −80°C until use.
(§3) Screening was performed to evaluate the antiviral effects of each synthetic peptide against the MV and SSPE viruses using the viral plaque reduction assay. Based on the results of the peptide screening, the 50% effective concentration (EC50), i.e., the concentration of compounds required to inhibit virus plaque formation by 50%, was also determined. The Human MV Edmonston strain was used to produce cell-free virions, which yielded a reproducible number of syncytia [generally 200–300 plaque-forming units (PFUs)] in the control wells. The SSPE virus was also used to yield a reproducible number of syncytia (generally 70–150 PFU) in control wells. In the peptide screening assay, each synthetic peptide was used at a concentration of 10 μM. IFN-α and enfuvirtide, a peptide fusion inhibitor of HIV-1, were used as controls at a concentration of 250 IU/ml and 10 μM, respectively.

Data set [4] deals with SSPE Yamagata-1 strain. The data set is described as follows: Viral plaque reduction assay, SSPE virus in Vero cells. The data set is classed as cell-based, SSPE virus (variant measles virus). On the procedure: as §2, §3
Data set [5] deals with SSPE Yamagata-1 strain. The data set is described as follows: Viral RNA quantification in whole brain of SSPE virus-infected nude mice. The following applies: day 14 post-infection; intracranial peptide; n = 5 per group; P < 0.05. The class given is in vivo, BALB/cAJcl-nu/nu mice. As for the experimental part:
Mice were divided in three groups (n = 5 for each cage) and housed with free access to both water and food and monitored daily. Mice were infected with SSPE virus intracranially in the same as animal survival experiments. Euthanasia was performed by cervical dislocation under isoflurane anesthesia on day 14 post-infection. The brain of each mouse was immediately harvested and mechanically homogenized with 2 ml Vero/SLAM cell growth medium using a PRO200 handheld or post-mounted homogenizer (PRO Scientific Inc., CT, USA). The homogenized brains were stored at −80°C. Viral RNA was extracted using ISOGEN-LS, and cDNA was synthesized using a reverse transcription kit (PrimeScript RT-reagent kit). MV RNA was quantified using a TaqMan real-time polymerase chain reaction assay, as previously described. The primer and probe were designed based on the MV Edmonston strain N gene, as previously reported. PCR amplification was performed using a 7300 Real-Time PCR system (Applied Biosystem). The control plasmid was produced by Dragon Genomics Center (Takara Bio, Mie, Japan) based on the MV Edmonston strain N gene (position 1321–1500).

Data set [6] has as its system MV Edmonston strain. As to the kind of experiment: Viral plaque reduction assay, measles virus in Vero cells. The following applies: Vero cells. The class given is cell-based. On the procedure:
as §2, §3

Data set [7] relates to SSPE virus. As to the kind of experiment: Time-of-addition experiments, SSPE virus in Vero cells. The class given is cell-based, SSPE virus (variant measles virus). As for the experimental part: Synthetic peptides, M1 and M2EK (10 μM each) were used in time-of-addition experiments. Each peptide was added to Vero cells at three distinct time points: prior to infection (pretreatment with the compound), at the same time as the virus infection (simultaneous infection), or post-infection (post-entry). The SSPE virus was prepared to yield a reproducible number of syncytia in untreated control wells (approximately 50–100/well). In the pretreatment assay, peptide was added to confluent cells and incubated at 37°C for 30 min, and the cell cultures were washed with MEM before viral inoculation. Cells were then challenged with the SSPE virus at 0°C for 30 min. In the simultaneous infection assay, SSPE virus with peptide was inoculated at 0°C for 30 min. After the adsorption, the cell cultures were subsequently washed with MEM, and growth medium containing 0.75% methylcellulose was overlaid on the cell cultures, followed by incubation for 3 days in both pretreatment and simultaneous infection assays. In the post-entry assay, cells were challenged with the SSPE virus at 0°C for 30 min. After adsorption, the cell cultures were subsequently washed with MEM and peptide, which was prepared in growth medium containing 0.75% methylcellulose, was subsequently overlaid on the cell cultures at distinct time points. The starting point when cells were incubated at 0°C for 30 min was defined as t0.

The subject of data set [8] is Vero/SLAM cells. As to the kind of experiment: Methyl tetrazolium cytotoxicity assay, Vero/SLAM cells. The data set is classed as cell-based, African green monkey. The following applies: confluent Vero/SLAM cells, 24 h, 37°C. On the procedure:
(§4) Peptide cytotoxicity was determined using the methyl tetrazolium assay. Five-fold serial dilutions of peptides were added to confluent Vero or Vero/SLAM cells. Cells were then incubated at 37°C for 24 h, and the number of viable cells was determined using 3-(4,5-dimethyllthiazol-2-yl)-2,5-diphenylterazolium bromide (Sigma–Aldrich, Tokyo, Japan). The 50% cytotoxic concentration (CC50), which was defined as the concentration required to reduce the cell viability by 50% relative to that of untreated controls, was determined. The selectivity index (SI) was defined as the ratio of the CC50 relative to the EC50 value.

Data set [9] relates to Vero cells. The data set is described as follows: Methyl tetrazolium cytotoxicity assay, Vero cells. The following applies: confluent Vero cells, 24 h, 37°C. The data set is classed as cell-based, African green monkey. On the procedure: as §4
The mark [10] stands for this setting: selectivity index, ratio of CC50 relative to EC50.

For `CC[C@H](C)[C@H](NC(=O)[C@H](CCC(=O)O)NC(=O)[C@H](CCC(=O)O)NC(=O)[C@H](CO)NC(=O)[C@H](CCCCN)NC(=O)[C@H](CCCCN)NC(=O)[C@H](CC(C)C)NC(=O)[C@H](CC(C)C)NC(=O)[C@H](CCC(=O)O)NC(=O)[C@H](CCC(=O)O)NC(=O)[C@H](C)NC(=O)[C@H](CCCCN)NC(=O)[C@H](CCCCN)NC(=O)[C@H](CC(C)C)NC(=O)[C@H](CCCCN)NC(=O)[C@H](CCC(=O)O)NC(=O)[C@H](CCC(=O)O)NC(=O)[C@H](C)NC(=O)[C@H](CCCCN)NC(=O)[C@H](CCCCN)NC(=O)[C@H](CC(C)C)NC(=O)[C@H](CC(N)=O)NC(=O)[C@H](CCC(=O)O)NC(=O)[C@H](CCC(=O)O)NC(=O)[C@@H](NC(C)=O)C(C)C)C(=O)N[C@@H](CC(C)C)C(=O)N[C@@H](CCCCN)C(=O)N[C@@H](CCCCN)C(=O)N[C@@H](CCSC)C(=O)N[C@@H](CCC(=O)O)C(=O)N[C@@H](CCC(=O)O)C(=O)N[C@@H](CC(C)C)C(=O)N[C@@H](CO)C(=O)N[C@@H](CCCCN)C(=O)N[C@@H](CCCCN)C(N)=O` [Peptide M2EK] (Ac-VEENLKKAEEKLKKAEELLKKSEEILKKMEELSKK-NH2), the “survival of mice administered with peptides alone, with no symptoms” value in data set [1] is > 45 days. The same compound gave a survival rate in [2] of 67%. Besides, the response in [3] (plaque reduction, SSPE Yamagata-1 strain, mean ± SD) was half-maximal at 20 ± 10 nM (EC50). For the same compound, in [3] (setting [10]), the “SI, SSPE virus (Vero/SLAM cells)” value was >6579. Also, the “inhibition of plaque formation compared with the control group, SSPE Yamagata-1 strain (peptide screening)” value in [4] (peptide 10 μM, Vero cells and Vero/SLAM cells (Fig 2C), duplicate, at least twice independently) was > 97%. Moreover, a half-maximal effect in data set [4] (plaque reduction, SSPE Yamagata-1 strain, Vero cells, mean ± SD) (EC50) was put at 50 ± 30 nM. Also, in data set [4] (selectivity index, ratio of CC50 relative to EC50, Vero cells), the “SI, SSPE virus (Vero cells)” value is listed as >2041. Besides, in data set [5], the “viral RNA copies in whole brain, lower than in M1-treated mice” value is recorded as “approximately four” and the “viral RNA copies in whole brain, lower than in enfuvirtide-treated mice” value is listed as “approximately three”. In [6] (plaque reduction, MV Edmonston strain, mean ± SD), this compound displayed an EC50 of 100 ± 70 nM. Also, the “SI, measles virus (Vero cells)” value in [6] (setting [10]) is >989. Also, in data set [7] (peptide 10 μM overlaid at distinct time points after adsorption), the “viral inhibitory effect, peptide added post-infection (post-entry)” value is on record as “observed in a time-dependent manner, particularly within 24 h”. Further, the “viral plaque numbers, peptide added before viral adsorption or at the same time as virus inoculation” value in data set [7] (peptide 10 μM, pretreatment 37°C 30 min or simultaneous with SSPE virus 0°C 30 min, compared with control) is “no reduction in viral plaque numbers”. Besides, the “CC50, SSPE virus (Vero/SLAM cells)” value in data set [8] is >100000 nM. Besides, in [9], the “CC50, SSPE virus (Vero cells)” value was >100000 nM and the “CC50, measles virus (Vero cells)” value is >100000 nM.
